According to PMC7407272, “Induction of Lysosome Membrane Permeabilization as a Therapeutic Strategy to Target Pancreatic Cancer Stem Cells” (Cancers, 2020):

Legend:
Assay in all cases: KINOMEscan
Type in all cases: binding
Conditions in all cases: read-out: % Ctrl
[1] = target: T1, AAK1 (Homo sapiens, UniProt Q2M2I8)
T1 construct: purchased DiscoveRx KINOMEscan

[2] = target: T2, PIK4CB (Homo sapiens, UniProt Q9UBF8)
T2 construct: purchased DiscoveRx KINOMEscan

[3] = target: T3, AKT3 (Homo sapiens, UniProt Q9Y243)
T3 construct: purchased DiscoveRx KINOMEscan

[4] = target: T4, PIM2 (Homo sapiens, UniProt Q9P1W9)
T4 construct: purchased DiscoveRx KINOMEscan
T4 sequence (Q9P1W9 whole entry): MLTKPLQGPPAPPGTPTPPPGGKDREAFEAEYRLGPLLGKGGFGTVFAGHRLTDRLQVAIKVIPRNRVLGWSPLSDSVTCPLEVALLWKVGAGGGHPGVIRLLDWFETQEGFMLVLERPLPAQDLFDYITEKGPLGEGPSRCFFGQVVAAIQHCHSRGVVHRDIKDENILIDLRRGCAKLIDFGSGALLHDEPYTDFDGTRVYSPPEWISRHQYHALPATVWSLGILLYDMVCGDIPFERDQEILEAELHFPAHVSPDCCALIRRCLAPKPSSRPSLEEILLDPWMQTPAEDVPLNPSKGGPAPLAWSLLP

[5] = target: T5, HCK (Homo sapiens, UniProt P08631)
T5 construct: purchased DiscoveRx KINOMEscan

[6] = target: T6, PIP5K2B (Homo sapiens, UniProt P78356)
T6 construct: purchased DiscoveRx KINOMEscan
T6 sequence (P78356 whole entry): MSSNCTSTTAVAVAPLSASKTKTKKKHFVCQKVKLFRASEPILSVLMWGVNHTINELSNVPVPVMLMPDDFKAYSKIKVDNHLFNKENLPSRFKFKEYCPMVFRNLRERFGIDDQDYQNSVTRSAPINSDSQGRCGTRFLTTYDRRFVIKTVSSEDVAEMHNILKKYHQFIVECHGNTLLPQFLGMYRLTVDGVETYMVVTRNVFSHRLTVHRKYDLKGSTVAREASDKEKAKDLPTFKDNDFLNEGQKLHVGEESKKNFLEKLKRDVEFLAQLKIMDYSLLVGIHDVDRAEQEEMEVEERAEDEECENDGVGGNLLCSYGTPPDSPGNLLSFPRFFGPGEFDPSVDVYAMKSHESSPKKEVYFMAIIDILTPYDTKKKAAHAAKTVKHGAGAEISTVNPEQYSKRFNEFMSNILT

[7] = target: T7, HIPK2 (Homo sapiens, UniProt Q9H2X6)
T7 construct: purchased DiscoveRx KINOMEscan

[8] = target: T8, PRKCQ (Homo sapiens, UniProt Q04759)
T8 construct: purchased DiscoveRx KINOMEscan
T8 sequence (Q04759 whole entry): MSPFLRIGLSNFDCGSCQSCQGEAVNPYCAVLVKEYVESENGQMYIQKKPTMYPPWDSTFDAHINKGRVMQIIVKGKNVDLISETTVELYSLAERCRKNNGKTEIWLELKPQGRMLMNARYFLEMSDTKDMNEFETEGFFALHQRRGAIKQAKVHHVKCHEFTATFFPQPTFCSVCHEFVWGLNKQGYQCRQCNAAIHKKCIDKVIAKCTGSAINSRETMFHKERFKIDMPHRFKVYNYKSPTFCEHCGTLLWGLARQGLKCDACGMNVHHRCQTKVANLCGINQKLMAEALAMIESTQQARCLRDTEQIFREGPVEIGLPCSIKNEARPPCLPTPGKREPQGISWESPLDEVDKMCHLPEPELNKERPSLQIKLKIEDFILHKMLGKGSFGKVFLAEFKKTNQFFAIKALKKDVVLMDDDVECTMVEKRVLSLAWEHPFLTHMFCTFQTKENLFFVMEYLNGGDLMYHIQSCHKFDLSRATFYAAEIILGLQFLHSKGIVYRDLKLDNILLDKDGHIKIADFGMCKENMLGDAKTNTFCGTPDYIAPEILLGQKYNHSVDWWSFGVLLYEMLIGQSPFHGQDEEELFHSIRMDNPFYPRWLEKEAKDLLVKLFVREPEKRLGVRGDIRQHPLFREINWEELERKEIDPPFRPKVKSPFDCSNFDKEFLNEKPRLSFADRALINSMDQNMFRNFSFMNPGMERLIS

[9] = target: T9, PRKD1 (Homo sapiens, UniProt Q15139)
T9 construct: purchased DiscoveRx KINOMEscan

[10] = target: T10, BRSK2 (Homo sapiens, UniProt Q8IWQ3)
T10 construct: purchased DiscoveRx KINOMEscan

[11] = target: T11, PRKD3 (Homo sapiens, UniProt O94806)
T11 construct: purchased DiscoveRx KINOMEscan

[12] = target: T12, PRKG1 (Homo sapiens, UniProt Q13976)
T12 construct: purchased DiscoveRx KINOMEscan
T12 sequence (Q13976 whole entry): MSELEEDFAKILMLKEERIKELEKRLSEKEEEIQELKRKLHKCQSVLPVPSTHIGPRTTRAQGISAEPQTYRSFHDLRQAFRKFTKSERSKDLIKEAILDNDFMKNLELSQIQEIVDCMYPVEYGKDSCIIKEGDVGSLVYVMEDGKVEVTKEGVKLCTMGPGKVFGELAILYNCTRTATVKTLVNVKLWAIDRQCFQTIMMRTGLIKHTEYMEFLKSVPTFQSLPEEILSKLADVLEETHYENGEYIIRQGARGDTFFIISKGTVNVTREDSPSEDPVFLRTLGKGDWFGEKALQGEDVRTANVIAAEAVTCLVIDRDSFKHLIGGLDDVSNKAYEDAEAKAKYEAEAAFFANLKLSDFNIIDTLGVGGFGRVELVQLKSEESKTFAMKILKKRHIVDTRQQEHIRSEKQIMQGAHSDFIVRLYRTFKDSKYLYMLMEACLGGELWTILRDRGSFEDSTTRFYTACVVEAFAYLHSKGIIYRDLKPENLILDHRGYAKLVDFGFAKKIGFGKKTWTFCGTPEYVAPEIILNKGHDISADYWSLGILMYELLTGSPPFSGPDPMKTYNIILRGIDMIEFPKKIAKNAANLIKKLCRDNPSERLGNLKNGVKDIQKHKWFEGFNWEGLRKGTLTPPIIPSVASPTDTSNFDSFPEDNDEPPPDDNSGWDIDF

[13] = target: T13, CASK (Homo sapiens, UniProt O14936)
T13 construct: purchased DiscoveRx KINOMEscan

[14] = target: T14, RIOK2 (Homo sapiens, UniProt Q9BVS4)
T14 construct: purchased DiscoveRx KINOMEscan

[15] = target: T15, CDK3 (Homo sapiens, UniProt Q00526)
T15 construct: purchased DiscoveRx KINOMEscan

[16] = target: T16, RPS6KA5(KD2-C-t.) (Homo sapiens, UniProt O75582)
T16 construct: RPS6KA5(KD2-C-t.); purchased DiscoveRx KINOMEscan

[17] = target: T17, RSK3(KD2-C-t.) (Homo sapiens, UniProt Q15349)
T17 construct: RSK3(KD2-C-t.); purchased DiscoveRx KINOMEscan

[18] = target: T18, RSK4(KD1-N-t.) (Homo sapiens, UniProt Q9UK32)
T18 construct: RSK4(KD1-N-t.); purchased DiscoveRx KINOMEscan

[19] = target: T19, MAP4K5 (Homo sapiens, UniProt Q9Y4K4)
T19 construct: purchased DiscoveRx KINOMEscan

[20] = target: T20, SGK3 (Homo sapiens, UniProt Q96BR1)
T20 construct: purchased DiscoveRx KINOMEscan

[21] = target: T21, MARK4 (Homo sapiens, UniProt Q96L34)
T21 construct: purchased DiscoveRx KINOMEscan
T21 sequence (Q96L34 whole entry): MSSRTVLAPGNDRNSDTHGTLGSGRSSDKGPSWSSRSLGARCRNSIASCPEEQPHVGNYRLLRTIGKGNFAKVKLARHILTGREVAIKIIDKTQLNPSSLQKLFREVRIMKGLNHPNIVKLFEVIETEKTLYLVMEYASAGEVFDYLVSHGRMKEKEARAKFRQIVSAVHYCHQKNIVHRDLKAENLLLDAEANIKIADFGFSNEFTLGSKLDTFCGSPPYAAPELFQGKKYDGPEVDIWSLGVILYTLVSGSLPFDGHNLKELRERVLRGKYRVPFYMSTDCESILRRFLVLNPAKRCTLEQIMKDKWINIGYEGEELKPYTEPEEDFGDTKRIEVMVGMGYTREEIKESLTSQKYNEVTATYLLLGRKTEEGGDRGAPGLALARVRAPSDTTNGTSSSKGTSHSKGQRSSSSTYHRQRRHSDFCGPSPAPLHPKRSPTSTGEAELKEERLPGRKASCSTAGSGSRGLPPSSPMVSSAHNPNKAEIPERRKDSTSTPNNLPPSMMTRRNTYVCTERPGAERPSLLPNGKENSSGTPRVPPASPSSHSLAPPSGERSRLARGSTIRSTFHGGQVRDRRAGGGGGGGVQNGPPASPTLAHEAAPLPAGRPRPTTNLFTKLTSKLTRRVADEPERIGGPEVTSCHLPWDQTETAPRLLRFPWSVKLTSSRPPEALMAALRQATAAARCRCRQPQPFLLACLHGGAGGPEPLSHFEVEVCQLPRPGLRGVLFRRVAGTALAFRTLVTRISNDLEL

[22] = target: T22, SIK2 (Homo sapiens, UniProt Q9H0K1)
T22 construct: purchased DiscoveRx KINOMEscan

[23] = target: T23, CSNK2A2 (Homo sapiens, UniProt P19784)
T23 construct: purchased DiscoveRx KINOMEscan

[24] = target: T24, MERTK (Homo sapiens, UniProt Q12866)
T24 construct: purchased DiscoveRx KINOMEscan

[25] = target: T25, STK16 (Homo sapiens, UniProt O75716)
T25 construct: purchased DiscoveRx KINOMEscan

[26] = target: T26, DAPK2 (Homo sapiens, UniProt Q9UIK4)
T26 construct: purchased DiscoveRx KINOMEscan

[27] = target: T27, DAPK3 (Homo sapiens, UniProt O43293)
T27 construct: purchased DiscoveRx KINOMEscan

[28] = target: T28, STK36 (Homo sapiens, UniProt Q9NRP7)
T28 construct: purchased DiscoveRx KINOMEscan
T28 sequence (Q9NRP7 whole entry): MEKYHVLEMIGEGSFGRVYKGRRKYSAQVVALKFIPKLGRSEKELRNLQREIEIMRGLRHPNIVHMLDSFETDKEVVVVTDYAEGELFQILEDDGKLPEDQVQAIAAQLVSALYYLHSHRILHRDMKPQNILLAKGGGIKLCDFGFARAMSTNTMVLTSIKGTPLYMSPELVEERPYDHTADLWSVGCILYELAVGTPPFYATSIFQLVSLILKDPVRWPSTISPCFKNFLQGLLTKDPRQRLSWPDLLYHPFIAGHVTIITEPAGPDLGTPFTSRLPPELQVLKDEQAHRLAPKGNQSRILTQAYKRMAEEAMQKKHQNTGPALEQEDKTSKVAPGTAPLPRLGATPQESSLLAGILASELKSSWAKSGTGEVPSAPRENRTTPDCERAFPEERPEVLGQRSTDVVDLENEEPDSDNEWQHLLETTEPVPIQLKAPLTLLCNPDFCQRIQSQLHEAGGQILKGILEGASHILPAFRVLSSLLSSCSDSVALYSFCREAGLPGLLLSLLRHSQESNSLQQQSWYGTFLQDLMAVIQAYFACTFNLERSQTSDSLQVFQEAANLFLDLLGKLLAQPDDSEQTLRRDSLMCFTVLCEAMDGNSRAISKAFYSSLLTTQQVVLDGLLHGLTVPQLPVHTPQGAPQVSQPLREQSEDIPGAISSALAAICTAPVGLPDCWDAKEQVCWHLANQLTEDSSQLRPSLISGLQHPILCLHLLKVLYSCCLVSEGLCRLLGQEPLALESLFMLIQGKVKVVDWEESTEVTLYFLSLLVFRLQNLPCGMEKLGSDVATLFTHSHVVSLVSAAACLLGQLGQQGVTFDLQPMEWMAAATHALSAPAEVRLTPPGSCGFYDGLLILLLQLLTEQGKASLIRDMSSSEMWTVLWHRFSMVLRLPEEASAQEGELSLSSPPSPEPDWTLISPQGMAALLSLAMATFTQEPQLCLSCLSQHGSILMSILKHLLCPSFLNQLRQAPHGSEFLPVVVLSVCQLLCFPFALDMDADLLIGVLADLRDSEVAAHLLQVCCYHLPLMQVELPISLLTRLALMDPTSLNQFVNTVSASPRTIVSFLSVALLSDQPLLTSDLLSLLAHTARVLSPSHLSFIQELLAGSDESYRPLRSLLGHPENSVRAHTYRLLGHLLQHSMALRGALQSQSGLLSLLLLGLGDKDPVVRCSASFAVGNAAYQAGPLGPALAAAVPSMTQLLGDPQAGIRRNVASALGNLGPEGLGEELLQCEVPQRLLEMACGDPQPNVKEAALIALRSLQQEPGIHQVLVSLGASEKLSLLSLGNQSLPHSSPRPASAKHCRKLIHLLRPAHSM

[29] = target: T29, TAOK3 (Homo sapiens, UniProt Q9H2K8)
T29 construct: purchased DiscoveRx KINOMEscan

[30] = target: T30, TGFBR1 (Homo sapiens, UniProt P36897)
T30 construct: purchased DiscoveRx KINOMEscan

[31] = target: T31, MST3 (Homo sapiens, UniProt Q9Y6E0)
T31 construct: purchased DiscoveRx KINOMEscan

[32] = target: T32, MYO3A (Homo sapiens, UniProt Q8NEV4)
T32 construct: purchased DiscoveRx KINOMEscan

[33] = target: T33, TRKC (Homo sapiens, UniProt Q16288)
T33 construct: purchased DiscoveRx KINOMEscan
T33 sequence (Q16288 32-839): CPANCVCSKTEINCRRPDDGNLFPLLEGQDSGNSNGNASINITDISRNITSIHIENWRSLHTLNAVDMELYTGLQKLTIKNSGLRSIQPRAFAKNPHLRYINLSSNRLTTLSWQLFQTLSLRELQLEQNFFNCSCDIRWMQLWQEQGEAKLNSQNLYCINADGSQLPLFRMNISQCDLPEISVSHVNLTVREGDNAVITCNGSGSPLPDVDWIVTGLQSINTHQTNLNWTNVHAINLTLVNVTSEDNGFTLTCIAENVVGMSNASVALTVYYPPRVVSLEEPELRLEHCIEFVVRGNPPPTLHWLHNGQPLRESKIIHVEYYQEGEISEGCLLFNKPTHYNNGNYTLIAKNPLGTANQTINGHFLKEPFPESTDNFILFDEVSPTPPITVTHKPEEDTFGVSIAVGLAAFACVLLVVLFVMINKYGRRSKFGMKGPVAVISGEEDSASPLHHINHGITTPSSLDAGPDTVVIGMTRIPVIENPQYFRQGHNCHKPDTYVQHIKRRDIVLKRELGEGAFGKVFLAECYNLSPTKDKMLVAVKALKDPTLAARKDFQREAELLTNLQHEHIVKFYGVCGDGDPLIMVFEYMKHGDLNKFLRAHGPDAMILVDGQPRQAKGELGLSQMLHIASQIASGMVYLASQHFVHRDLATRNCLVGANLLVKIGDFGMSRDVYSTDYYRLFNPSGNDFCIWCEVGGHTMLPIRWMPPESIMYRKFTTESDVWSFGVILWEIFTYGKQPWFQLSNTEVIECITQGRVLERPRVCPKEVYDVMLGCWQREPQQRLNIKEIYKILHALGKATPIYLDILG

[34] = target: T34, EIF2AK1 (Homo sapiens, UniProt Q9BQI3)
T34 construct: purchased DiscoveRx KINOMEscan

[35] = target: T35, ULK1 (Homo sapiens, UniProt O75385)
T35 construct: purchased DiscoveRx KINOMEscan

[36] = target: T36, OSR1 (Homo sapiens, UniProt O95747)
T36 construct: purchased DiscoveRx KINOMEscan

[37] = target: T37, YSK4 (Homo sapiens, UniProt Q56UN5)
T37 construct: purchased DiscoveRx KINOMEscan

For CN1CCC(CNc2ccc3ncc(C(=O)Nc4cccc(OC(F)(F)F)c4)n3n2)CC1 [Cpd 2], the remaining binding at 1 µM [1] was 89%, the remaining binding at 1 µM [2] was 99% and the remaining binding at 1 µM [3] was 100%. For the same compound, the remaining binding at 1 µM [4] was 72%, the remaining binding at 1 µM [5] was 96% and the remaining binding at 1 µM [6] was 95%. For the same compound, the remaining binding at 1 µM [7] was 68%, the remaining binding at 1 µM [8] was 55% and the remaining binding at 1 µM [9] was 98%. It also gave a remaining binding at 1 µM [10] of 100%, a remaining binding at 1 µM [11] of 92% and a remaining binding at 1 µM [12] of 100%. It also gave a remaining binding at 1 µM [13] of 93%, a remaining binding at 1 µM [14] of 99% and a remaining binding at 1 µM [15] of 85%. It also gave a remaining binding at 1 µM [16] of 92%, a remaining binding at 1 µM [17] of 74% and a remaining binding at 1 µM [18] of 92%. It also gave a remaining binding at 1 µM [19] of 92%, a remaining binding at 1 µM [20] of 100% and a remaining binding at 1 µM [21] of 100%. It also gave a remaining binding at 1 µM [22] of 97%, a remaining binding at 1 µM [23] of 39% and a remaining binding at 1 µM [24] of 88%. It also gave a remaining binding at 1 µM [25] of 96%, a remaining binding at 1 µM [26] of 89% and a remaining binding at 1 µM [27] of 75%. For the same compound, the remaining binding at 1 µM [28] was 100%, the remaining binding at 1 µM [29] was 99% and the remaining binding at 1 µM [30] was 100%. For the same compound, the remaining binding at 1 µM [31] was 96%, the remaining binding at 1 µM [32] was 91% and the remaining binding at 1 µM [33] was 70%. It also gave a remaining binding at 1 µM [34] of 95%, a remaining binding at 1 µM [35] of 98% and a remaining binding at 1 µM [36] of 100%. It also gave a remaining binding at 1 µM [37] of 71%.
